The values that follow are results of earlier work, collected in patent US8445527B2, “Organic compounds and their uses” (Novartis AG, priority 2006, dated 2013).

The subject of the data set is HCV. Particulars: ribavirin alone.

For `NC(=O)c1ncn([C@@H]2O[C@H](CO)[C@@H](O)[C@H]2O)n1` [Ribavirin, 1-β-D-ribofuranosyl-1-1,2,4-triazole-3-caroxamide], the “patients in whom serum amino transferase levels are reduced to normal” value was 40% and the “serum levels of HCV-RNA” value is recorded as “does not lower”.
